Test results reported in patent publication US9309191B2 (priority 2013, dated 2016).

Tested on: Magnaporthe grisea
Type: in vivo
Conditions: rice (Nipponbare); for lesion area of treated plants relative to the lesion area in the non-treated plant: 200 ppm foliar spray, contact with affected seedlings for 6 days; for Lesion Area (%): Concentration 200 ppm foliar spray, table

SMILES	lesion area of treated plants relative to the lesion area in the non-treated plant	Lesion Area (%)
Cc1cc(OCC2CCCCC2)c(C)cc1N=CN(C)C [Compound 267, N′-(4-cyclohexylmethoxy-2,5-dimethylphenyl)-N,N-dimethylformamidine]	≤ 50%	31-50%
Cc1cc(OCC2CC2)c(C)cc1/N=C/N(C)C [1-17, N′-(4-cyclopropylmethoxy-2,5-dimethylphenyl)-N,N-dimethylformamidine]	≤ 10%	1-10%
